Assay: Solubility in organic solvents
Type: physicochemical
Settings: 20 °C, organic solvent or mixture, thermodynamic from solid; about 20 to about 25° C.; solvent not given
Experimental: In all studies, excess solid of the compound was allowed to equilibrate for at least 12 hours while stirring.

For `COCCOc1cnc2ccn([C@H](C)c3nnc4c(F)cc(-c5cnn(C)c5)cn34)c(=O)c2c1` [DMSO hemisolvate form of Compound M, 6-{(1R)-1-[8-fluoro-6-(1-methyl-1H-pyrazol-4-yl)[1,2,4]triazolo[4,3-a]pyridin-3-yl]ethyl}-3-(2-methoxyethoxy)-1,6-naphthyridin-5(6H)-one], the solubility was roughly 164 mg/mL.
